Source: patent publication US20260078341A1, “TREATMENT OF CANCER USING CHIMERIC ANTIGEN RECEPTOR” (Novartis AG, priority 2014, published 2026)
Marks after values point to notes of the source that are not given here.

Key:
Format in all cases: in vivo, human
[1] = tested on: influenza vaccine strains; test: Primary endpoint: HI GMT ratio relative to placebo in at least 2 of 3 influenza vaccine strains; settings: ITT population
Protocol: (§1) The ability of RAD001 to improve immune function in elderly volunteers was evaluated by measuring the serologic response to the 2012 seasonal influenza vaccine. The hemagglutination inhibition (HI) geometric mean titers (GMT) to each of the 3 influenza vaccine strains at baseline and 4 weeks after influenza vaccination are provided in Table 6. The primary analysis variable was the HI GMT ratio (4 weeks post vaccination/baseline). […] This endpoint was chosen because a 1.2-fold increase in the influenza GMT ratio induced by the MF-59 vaccine adjuvant was associated with a decrease in influenza illness (Iob, A et al. (2005) Epidemiol Infect 133:687-693).
Elderly volunteers >=65 years of age were randomized to one of the 3 RAD001 treatment groups (50 subjects per arm) or placebo (20 subjects per arm). Subjects were treated with study drug for 6 weeks, given a 2 week break, and then received influenza (Aggrippal, Novartis) and pneumoccal (Pneumovax 23, Merck), vaccinations. Response to influenza vaccination was assessed by measuring the geometric mean titers (GMTs) by hemagglutination inhibition assay to the 3 influenza strains (H1N1, H3N2 and B influenza subtypes) in the influenza vaccine 4 weeks after vaccination. […] Antibody titers to 7 of the serotypes were measured in our subjects.

[2] = tested on: influenza vaccine strains and heterologous influenza strains; test: Influenza geometric mean titers 4 weeks after vaccination in RAD001 cohorts; settings: relative to placebo
Source text: FIGS. 41A and 41B. […] In FIG. 41A, the increase above baseline in influenza geometric mean titers to each of the 3 influenza vaccine strains (H1N1 A/California/07/2009, H3N2 A/Victoria/210/2009, B/Brisbane/60/2008) relative to the increase in the placebo cohort 4 weeks after vaccination is shown for each of the RAD001 dosing cohorts in the intention to treat population. […] FIG. 41B is a graph of the same data as in FIG. 41A for the subset of subjects with baseline influenza titers <=1:40.
The increase above baseline in influenza geometric mean titers to 2 heterologous influenza strains (A/H1N1 strain A/New Jersey/8/76 and A/H3N2 strain A/Victoria/361/11) not contained in the influenza vaccine relative to the increase in the placebo cohort 4 weeks after vaccination is shown for each of the RAD001 dosing cohorts in the intention to treat population. * indicates increase in titer relative to placebo exceeds 1 with a posterior probability of at least 80%.

[3] = tested on: A/H1N1/California/07/2009; test: Anti-influenza IgG and IgM levels in serum; settings: 4 weeks after influenza vaccination
Protocol: The trial was observer-blind because the placebo in the RAD001 0.5 mg daily and 20 mg weekly cohorts differed slightly from the RAD001 tablets in those cohorts. […] The treatment duration for all cohorts was 6 weeks during which time subjects underwent safety evaluations in the clinic every 2 weeks. After subjects had been dosed for 4 weeks, RAD001 steady state levels were measured pre-dose and at one hour post dose. […] Antibody titers to the 3 influenza vaccine strains as well as to 2 heterologous strains (A/H1N1 strain A/New Jersy/8/76 and A/H3N2 strain A/Victoria/361/11) were measured by standard hemagglutination inhibition assay (Kendal, A P et al. (1982) Concepts and procedures for laboratory-based influenza surveillance. Atlanta: Centers for Disease Control and Prevention B17-B35). Levels of IgG and IgM specific for the A/H1N1/California/07/2009 were measured in serum samples taken before and 4 weeks after influenza vaccination as described previously (Spensieri, F. et al. (2013) Proc. Natl. Acad. Sci. USA 110:14330-14335). Results were expressed as fluorescence intensity.

[4] = tested on: A/H1N1/California/07/2009 influenza; test: Anti-A/H1N1/California/07/2009 influenza IgG and IgM levels in serum; settings: baseline to 4 weeks post vaccination, vs placebo
Protocol: FIGS. 44A and 44B. Graphic representations of IgG and IgM levels before and after influenza vaccination. Levels of anti-A/H1N1/California/07/2009 influenza IgG and IgM were measured in serum obtained from subjects before and 4 weeks post influenza vaccination.

B/Brisbane/60/2008 = test: Hemagglutination inhibition titers after influenza vaccination, B vaccine strain; settings: for HI GMT ratio (CV %) B: GMT at week 4 post vaccination/GMT at baseline
Protocol: The trial was observer-blind because the placebo in the RAD001 0.5 mg daily and 20 mg weekly cohorts differed slightly from the RAD001 tablets in those cohorts. […] The treatment duration for all cohorts was 6 weeks during which time subjects underwent safety evaluations in the clinic every 2 weeks. After subjects had been dosed for 4 weeks, RAD001 steady state levels were measured pre-dose and at one hour post dose. After completing the 6 week course of study drug, subjects were given a 2 week drug free break to reverse any possible RAD001-induced immunosuppression, and then were given a 2012 seasonal influenza vaccination (Agrippal®, Novartis Vaccines and Diagnostics, Siena, Italy) containing the strains H1N1 A/California/07/2009, H3N2 A/Victoria/210/2009, B/Brisbane/60/2008. Four weeks after influenza vaccination, subjects had serum collected for influenza titer measurements. Antibody titers to the 3 influenza vaccine strains as well as to 2 heterologous strains (A/H1N1 strain A/New Jersy/8/76 and A/H3N2 strain A/Victoria/361/11) were measured by standard hemagglutination inhibition assay (Kendal, A P et al. (1982) Concepts and procedures for laboratory-based influenza surveillance. Atlanta: Centers for Disease Control and Prevention B17-B35). Levels of IgG and IgM specific for the A/H1N1/California/07/2009 were measured in serum samples taken before and 4 weeks after influenza vaccination as described previously (Spensieri, F. et al. (2013) Proc. Natl. Acad. Sci. USA 110:14330-14335). Results were expressed as fluorescence intensity.
The primary analysis of geometric mean titer ratios was done using a normal Bayesian regression model with non-informative priors. This model was fitted to each antibody titer on the log scale. The primary outcome in each model was the Day 84 measurement. The Day 63 measurement was included in the outcome vector. The model fitted using SAS 9.2 proc mixed with the prior statement. The covariance structure of the matrix was considered as unstructured (option type=UN). A flat prior was used. For the secondary analysis of seroconversion rates, logistic regression was used.
as §1
Rates of seroconversion 4 weeks after influenza vaccination were also evaluated. Seroconversion was defined as the change from a negative pre-vaccination titer (i.e., HI titer <1:10) to post-vaccination HI titer ≥1:40 or at least 4-fold increase from a non-negative (>1:10) pre-vaccination HI titer.

## CO[C@H]1C[C@@H]2CC[C@@H](C)[C@@](O)(O2)C(=O)C(=O)N2CCCC[C@H]2C(=O)O[C@H]([C@H](C)C[C@@H]2CC[C@@H](OCCO)[C@H](OC)C2)CC(=O)[C@H](C)/C=C(\C)[C@@H](O)[C@@H](OC)C(=O)[C@H](C)C[C@H](C)/C=C/C=C/C=C/1C [RAD001, (1R,9S,12S,15R,16E,18R,19R,21R,23S,24E,26E,28E,30S,32S,35R)-1,18-dihydroxy-12-{(1R)-2-[(1S,3R,4R)-4-(2-hydroxyethoxy)-3-methoxycyclohexyl]-1-methylethyl}-19,30-dimethoxy-15,17,21,23,29,35-hexamethyl-11,36-dioxa-4-azatricyclo[30.3.1.0^4,9]hexatriaconta-16,24,26,28-tetraene-2,3,10,14,20-pentaone]
[1]; 0.5 mg daily or 5 mg weekly
  primary endpoint of the study (HI GMT ratio): met the GMT primary endpoint
[1]; 20 mg weekly
  primary endpoint of the study (HI GMT ratio): but not higher dose (20 mg weekly) cohort met the primary endpoint
[2]
  titers to heterologous influenza strains: increase in titers to heterologous influenza strains as compared to placebo
  titers to influenza vaccine strains: increase in titers to influenza vaccine strains as compared to placebo
[3]
  post-vaccination anti-influenza IgM and IgG levels, RAD001 versus placebo: did not differ
[4]
  change from baseline in anti-H1N1 influenza IgG and IgM levels: No significant difference
B/Brisbane/60/2008; Baseline (2 weeks prior to influenza vaccination), RAD001 0.5 mg daily
  HI GMT (CV %) B: 44.2 (96.6)
B/Brisbane/60/2008; Baseline (2 weeks prior to influenza vaccination), RAD001 5 mg weekly
  HI GMT (CV %) B: 64.8 (87.3)
B/Brisbane/60/2008; Baseline (2 weeks prior to influenza vaccination), RAD001 20 mg weekly
  HI GMT (CV %) B: 58.0 (156.0)
B/Brisbane/60/2008; RAD001 0.5 mg daily
  HI GMT ratio (CV %) B: 2.5 (111.2)
B/Brisbane/60/2008; RAD001 5 mg weekly
  HI GMT ratio (CV %) B: 2.2 (112.8)
B/Brisbane/60/2008; RAD001 20 mg weekly
  HI GMT ratio (CV %) B: 2.1 (126.5)
B/Brisbane/60/2008; Intention to Treat Population, 0.5 mg
  Percent of subjects with seroconversion to influenza 4 weeks after vaccination, B: 27%
B/Brisbane/60/2008; Intention to Treat Population, 5 mg
  Percent of subjects with seroconversion to influenza 4 weeks after vaccination, B: 22%
B/Brisbane/60/2008; Intention to Treat Population, 20 mg
  Percent of subjects with seroconversion to influenza 4 weeks after vaccination, B: 19%
B/Brisbane/60/2008; Subjects with Baseline Titers <=40, 0.5 mg
  Percent of subjects with seroconversion to influenza 4 weeks after vaccination, B: 40* Percent
B/Brisbane/60/2008; Subjects with Baseline Titers <=40, 5 mg
  Percent of subjects with seroconversion to influenza 4 weeks after vaccination, B: 33%
B/Brisbane/60/2008; Subjects with Baseline Titers <=40, 20 mg
  Percent of subjects with seroconversion to influenza 4 weeks after vaccination, B: 28%
B/Brisbane/60/2008; Week 4 after influenza vaccination, RAD001 0.5 mg daily
  HI GMT (CV %) B: 98.4 (94.8)
B/Brisbane/60/2008; Week 4 after influenza vaccination, RAD001 5 mg weekly
  HI GMT (CV %) B: 117.3 (99.9)
B/Brisbane/60/2008; Week 4 after influenza vaccination, RAD001 20 mg weekly
  HI GMT (CV %) B: 99.2 (124.1)
